A short description of this data set: solvent given as SMILES.

Where “and” joins values, the source holds several entries; their conditions need not be identical. Equal values may be shown once.

`CCC1(CC)c2cc(-c3ccc4c(c3)C(CC)(CC)c3cc(C(C)(C)C)ccc3-4)ccc2-c2ccc(-c3ccc4c(c3)C(CC)(CC)c3cc(C(C)(C)C)ccc3-4)cc21`: under “in CO”, the emission maximum came out at 385.59 nm.
As to `c1ccc(N(c2ccccc2)c2c3ccccc3c(N(c3ccccc3)c3ccccc3)c3ccccc23)cc1`, the emission maximum (in Cc1ccccc1) amounted to 510 nm.
Take `N#Cc1nc2c3ccc(-c4ccc(N(c5ccccc5)c5ccccc5)cc4)cc3c3cc(-c4ccc(N(c5ccccc5)c5ccccc5)cc4)ccc3c2nc1C#N`: the emission maximum turned out to be 633.42 nm (in C1COCCO1); 503.54 nm (in CCCCCC); 588 nm (in Cc1ccccc1); 721.14 nm (in ClC(Cl)Cl); 628 nm (in O=P(c1ccccc1)(c1ccccc1)c1cccc(-c2cc(-n3c4ccccc4c4ccccc43)cc(-n3c4ccccc4c4ccccc43)c2)n1).
For `CCCCc1cc(-c2cccc(COC)c2)oc1-c1cccc(-c2cc(CCCC)c(-c3cccc(-c4cc(CCCC)c(-c5cccc(-c6oc(-c7cccc(-c8oc(-c9cccc(-c%10oc(-c%11cccc(COC)c%11)cc%10CCCC)c9)cc8CCCC)c7)cc6CCCC)c5)o4)c3)o2)c1`, the emission maximum (in ClC(Cl)Cl) came out at 374 nm.
With `CC(C)(C)c1ccc(-c2nc(-c3ccc(C(C)(C)C)cc3)nc(-c3ccc(-n4c5ccccc5c5c6oc7ccccc7c6ccc54)c(C#N)c3)n2)cc1`, the emission maximum (in C1CCOC1) came out at 450.74 nm.
With `COc1ccc(/C=C/C(=O)c2c(O)cc(C)oc2=O)cc1`, the emission maximum by setting is: (in CC#N) 488 nm; (in ClCCl) 487 nm.
`c1ccc2c(c1)-c1c(cc3ccc4cccc5ccc1c3c45)C21c2cc(-c3ccc4ccc5cccc6ccc3c4c56)ccc2-c2ccc(-c3ccc4ccc5cccc6ccc3c4c56)cc21` gave an emission maximum (in ClC(Cl)Cl) of 424 nm.
For `CC1=CC(C)=[N+]2C1=C(c1ccc(-c3c4ccccc4c(-c4ccccc4)c4ccccc34)cc1)c1c(C)cc(C)n1[B-]2(F)F`, the emission maximum runs as follows: (in CC#N) 508 nm; (in CCCCCC) 511 nm; (in CCO) 510 nm; (in CN(C)C=O) 510 nm; (in Cc1ccccc1) 515 nm; (in ClCCl) 512 nm.
Regarding `COc1ccc(/C=C(\C)c2nc3ccccc3o2)cc1`, the emission maximum is, setting by setting: (in C1CCCCC1) 380 nm; (in CO) 400 nm.
In the case of `ClP1(Cl)=N[P@@](Cl)(Oc2ccc3ccc4cccc5ccc2c3c45)=N[P@@](Cl)(Oc2ccc3ccc4cccc5ccc2c3c45)=N1`, the emission maximum (in ClCCl) was found to be 455 nm.
Under “in CC#N”, `Cc1ccc2nc3[nH]c(=O)[nH]c(=O)c3nc2c1C` gave an emission maximum of 469 nm.
For the compound `CN(C)c1ccc(/C=C/c2cc[n+](C)cc2)cc1`, the emission maximum is 590 nm (in C1CCOC1); 600 nm (in CC1COC(=O)O1); 625 nm and 605 nm (in CC#N); 602 nm (in CC(C)=O); 591 nm (in CC(C)O); 594 nm (in CCO). For the same compound, the emission maximum is recorded as 595 nm (in CCOC(C)=O); 596 nm (in CN(C)C=O); 596 nm (in CO); 610 nm (in CS(C)=O); 585 nm (in ClC(Cl)Cl); 608 nm (in ClCCl). The emission maximum was 624 nm and 597 nm (in O); 605 nm (in c1ccncc1).
Regarding `CC1=CC(/C=C/c2ccc([N+](C)(C)C)cc2)=[N+]2C1=C(c1ccc(C#CCO[C@@H]3O[C@H](CO)[C@@H](O)C(O)[C@H]3O)cc1)c1c(C)cc(/C=C/c3ccc([N+](C)(C)C)cc3)n1[B-]2(F)F` (some centres not stated), the emission maximum (in CC#N) is reported as 629 nm.
For the compound `CCCCCCCCCCOC(=O)c1ccc2c3ccc(C(=O)OCCCCCCCCCC)c4c(C(=O)OCCCCCCCCCC)cc5[nH]c6cc(C(=O)OCCCCCCCCCC)c1c2c6c5c43`, the emission maximum (in C1CCOC1) is 493 nm.
The compound `CCCCCCCCc1ccc(-c2c3cc(-c4cc(CCCCCCCC)c(-c5ccc(-c6sc(/C=C7\SC(=S)N(CC)C7=O)cc6CCCCCCCC)s5)s4)sc3c(-c3ccc(CCCCCCCC)s3)c3cc(-c4cc(CCCCCCCC)c(-c5ccc(-c6sc(/C=C7\SC(=S)N(CC)C7=O)cc6CCCCCCCC)s5)s4)sc23)s1` yielded an emission maximum (in ClC(Cl)Cl) of 670 nm.
Regarding `Cc1ccccc1C1=C2C=c3c(oc4c3ccc3ccccc34)=[N+]2[B-](F)(F)n2c1cc1c3ccc4ccccc4c3oc12`, the emission maximum runs as follows: (in C1CCCCC1) 625 nm; (in CCOC(C)=O) 626.5 nm; (in CO) 625 nm.
Turning to `CCOC(=O)CSc1nc2c(c(C#N)c1C#N)CCCCCC2`, where the note is “in c1ccccc1”, the emission maximum was 408 nm.
The compound `CCCCCCCCOc1ccc(-c2c3c4n(c(-c5ccc(OCCCCCCCC)cc5)c3c3n2[B-](F)(F)[n+]2c(sc5ccccc52)N=3)[B-](F)(F)[n+]2c(sc3ccccc32)N=4)cc1` yielded an emission maximum (in ClC(Cl)Cl) of 676 nm.
Take `CN(C)c1ccc(-c2nc3nccnc3n2-c2ccccc2)cc1`: where the note is “in CC#N”, the emission maximum was found to be 477 nm.
The compound `c1cc2cc(c1)c1ccc3ccc4ccc(cc4c3c1)c1ccc3ccc4ccc(cc4c3c1)c1cccc2c1` came in with an emission maximum (in Cc1ccccc1) of 414 nm.
For the compound `Cc1ccc2ccc3cccc4ccc1c2c34`, the emission maximum reads like this: (in CCCCCC) 377 nm; (in CO) 377 nm; (in ClCCl) 378 nm.
`Cc1cc(C)c(C2=C3C=CC4=[N+]3[B-]3(Oc5ccccc54)Oc4ccccc4-c4ccc2n43)c(C)c1` (configuration not stated) had an emission maximum (in ClC(Cl)Cl) of 645 nm.
For `Cc1cc(C)c(B(c2ccc(N3c4ccccc4C(C)(C)c4ccccc43)cc2)c2c(C)cc(C)cc2C)c(C)c1`, the emission maximum reads like this: (in C1CCCCC1) 442 nm; (in C1CCOC1) 530 nm; (in CN(C)C=O) 578.72 nm; (in Cc1ccccc1) 484 nm; (in ClCCl) 540.77 nm.
Take `CCn1c2ccccc2c2cc(C#Cc3cc(C#Cc4ccc5c(c4)c4ccccc4n5CC)nc(S(C)(=O)=O)n3)ccc21`: the emission maximum reads like this: (in C1CCOC1) 496 nm; (in CCOC(C)=O) 491 nm; (in CN(C)C=O) 550 nm; (in Cc1ccccc1) 447 nm; (in ClCCl) 510 nm.
In the case of `CN(C)c1ccc2cc3c(cc2c1)OCCN=C3`, the emission maximum reads like this: (in C1CCOC1) 425 nm; (in CC#N) 562 nm; (in CC(C)O) 447 nm; (in CCOC(C)=O) 426 nm; (in CN(C)C=O) 442 nm; (in CS(C)=O) 447 nm. The compound also registered an emission maximum (in Cc1ccccc1) of 415 nm, an emission maximum (in ClCCl) of 532 nm and an emission maximum (in O) of 559 nm.
The compound `Cc1ccc(N2C(c3ccccc3N(C)C)=NC(c3ccccc3)C2c2ccccc2)cc1` (configuration not stated) displayed an emission maximum (in Cc1ccccc1) of 422 nm.
`Cc1cc(-c2ccccc2C)cc(C)[o+]1` yielded an emission maximum (in CC#N) of 518 nm and an emission maximum (in ClCCl) of 469 nm.
`COc1ccc2c(c1)c1ccc3cccc4c5cccc6oc(=O)c2c(c65)c1c34` gave an emission maximum (in C1CCOC1) of 440 nm.
Where the note is “in C1COCCO1”, `COC(=O)c1ccc(/C=C2\C=C(c3ccc(C#N)cc3)N(CC(C)C)C2=O)cc1` returned an emission maximum of 589 nm.
`Cc1cc(C)c(B(c2cc3c4c(c(B(c5c(C)cc(C)cc5C)c5c(C)cc(C)cc5C)cc5c4c2CCC5)CCC3)c2c(C)cc(C)cc2C)c(C)c1`: the emission maximum is, setting by setting: (in C1CCOC1) 464.54 nm; (in CC#N) 465.9 nm; (in CCCCCC) 456 nm.

(Values after the Deep4Chem optical property database.)
